The test system of assay [1] is CAL27 (head and neck cancer). As to the kind of experiment: Transplanted tumor in nude mice, CAL27 model. In kind it is in vivo, nude mice (BALB/c). As to conditions: 10 mg/kg/day orally for 21 days. The text has this:
(§1) Furthermore, more pharmacological models of tumor cell lines in nude mice were utilized to validate the inhibitory effects of compound Ie. The test method was specifically described as follows: H1975, A549, HCC827, A431, N87, MDA-MD-468 and CAL27 tumor cells respectively were inoculated into nude mice (BALB/c, male, 5-6 weeks of age), and when the mean tumor volume reaches 150 mm^3 mice was randomized into groups. The H1975 tumor model in nude mice includes one positive control group and three dosage groups of compound Ie (6.7 mg/kg/day, 13.4 mg/kg/day, and 20.1 mg/kg/day. The A549 tumor model in nude mice includes one positive control group, two dosage groups of compound Ie (10 mg/kg/day, 20 mg/kg/day), and one dosage group of Docetaxel (12 mg/kg/day). The HCC827 tumor model in nude mice includes one positive control group, two dosage groups of compound Ie (0.5 mg/kg/day, 2.5 mg/kg/day), and one dosage group of Erlotinib (12.5 mg/kg/day). The A431 tumor model in nude mice includes one positive control group, two dosage groups of compound Ie (2.5 mg/kg/day, 5 mg/kg/day), and one dosage group of Erlotinib (50 mg/kg/day). […] The tumor size and body weight of nude mice were recorded twice weekly from the first day of administration. The tumor volume was calculated using formula (1×w^2), wherein 1 and w respectively represents the maximum and minimum size in each measurement. […]

The next assay concerns NCI-H2126. As to the kind of experiment: Inhibition of tumor cells, WST method. The format is cell-based. As to conditions: Homo sapiens, Lung. The method, then: (§2) (1) Compounds: in vitro studies the test compounds was dissolved in 100% DMSO and diluted until the final concentration of DMSO was 0.1%. The 0.1% (v/v) DMSO was added into culture medium as solvent control. 9 concentration gradients were tested and each gradient was repeated twice. (2) Tumor cell lines: the tumor cell lines were cultivated in RPMI10 culture medium containing 10% fetal calf serum in incubator at 37° C. in a 5% CO2 air incubator. The tested tumor cell lines were: BT474, MDA-MB-231, SK-Br-3, A431, H292, H1975, HCC827, A549, H1650 and H1734. (3) MTS method: cells were seeded into 96-well plate to give a density of about 3000 cells per well, and incubated overnight in a humidified incubator at 37° C. In the next day, the test compounds were added to the wells and further incubated for 72 hours. The cell activity was detected using MTS. IC50 was calculated (the concentration of a compound that is required for 50% inhibition of the cell growth versus the DMSO control group, using nonlinear regression analysis of software GraphPad Prism). […] In a 96-well plate, each test compound was tested at 9 dosage concentrations and each dosage was made in triplicate. Samples were added in 100 μL/well. Cell control and negative control wells contained diluents instead of compounds. Except the negative control well, 100 μL cell suspension of complete medium was added into each test well, wherein corresponding cell numbers were included to assure that the cells in cell control well just cover the bottom of the well as the required incubation time was reached. The plate was incubated in a CO2 incubator at 37° C. for 48 hours. The liquid in test wells was removed by pipetting. 100 μL CCK-8 (Cell counting Kit-8, purchased from DOJINDO Molecular Technologies) detection liquid (containing 10% CCK-8, 5% FBS corresponding medium) was added into each test well, then the plate was incubated in a CO2 incubator under at 37° C. for 3 hours. OD value was detected by ELIASA at A450 nm. Cell viability percentage (%)=(O.D. test compound-O.D. blank)/(O.D. control-O.D. blank)×100. Mean value was calculated for each 3 repeated wells, and IC50 was calculated using nonlinear regression (fitted curve) data analysis method.
(§3) Parts of test results of compound Ie listed in the table 3 and all of the test results listed in the table 4 were obtained by WST method.

Assay [2] has as its system SK-Br-3. As to the kind of experiment: Inhibition of tumor cells, WST method. The format is cell-based. As to conditions: Homo sapiens, 48 hours. As to the method: as §2, §3
The subject of another assay is ACHN. Put plainly: Inhibition of tumor cells, WST method. In kind it is cell-based. The settings on record: Homo sapiens, Kidney. As to the method:
as §2, §3

The next assay relates to C-33A. As to the kind of experiment: Inhibition of tumor cells, WST method. In kind it is cell-based. The settings on record: Homo sapiens, Uterine Neck. The method, then: as §2, §3
Assay [3] has as its system A431. As to the kind of experiment: Inhibition of tumor cells, WST method. The format is cell-based. As to conditions: Homo sapiens, A-431, 48 hours. As to the method:
as §2, §3

Another assay has as its system CW-2. As to the kind of experiment: Inhibition of tumor cells, WST method. In kind it is cell-based. As to conditions: Homo sapiens, Colon. As to the method: as §2, §3
The next assay deals with NCI-H358. As to the kind of experiment: Inhibition of tumor cells, WST method. In kind it is cell-based. As to conditions: Homo sapiens, Lung. As to the method: as §2, §3
For assay [4], the system named is A549. Put plainly: Inhibition of tumor cells, WST method. The settings on record: Homo sapiens, 48 hours. In kind it is cell-based. As to the method:
as §2, §3

Assay [5] concerns HCC827 (non-small cell lung cancer). As to the kind of experiment: Transplanted tumor in nude mice, HCC827 model. In kind it is in vivo, nude mice (BALB/c).
Text: as §1

The test system of assay [6] is SK-Br-3. As to the kind of experiment: Inhibition of tumor cells, MTS method. In kind it is cell-based. The settings on record: Homo sapiens, 72 hours. As to the method: as §2
A general note: Tetrazolium dyes change colour on reduction, which living cells bring about.

A further assay deals with H292. Put plainly: Inhibition of tumor cells, MTS method. In kind it is cell-based. As to conditions: Homo sapiens, NCI-H292, 72 hours. As to the method:
as §2

In a further assay the test system is BT474. As to the kind of experiment: Inhibition of tumor cells, MTS method. The format is cell-based. The settings on record: Homo sapiens, BT-474, 72 hours. The method, then: as §2
In a further assay the test system is HCC827. As to the kind of experiment: Inhibition of tumor cells, MTS method. The format is cell-based. As to conditions: Homo sapiens, 72 hours. The method, then:
as §2

The subject of another assay is H1975. As to the kind of experiment: Inhibition of tumor cells, MTS method. In kind it is cell-based. The settings on record: Homo sapiens, NCI-H1975, 72 hours. The method, then:
as §2

For assay [7], the system named is A431. As to the kind of experiment: Inhibition of tumor cells, MTS method. In kind it is cell-based. As to conditions: Homo sapiens, A-431, 72 hours. As to the method:
as §2

The next assay deals with H1650. As to the kind of experiment: Inhibition of tumor cells, MTS method. In kind it is cell-based. The settings on record: Homo sapiens, NCI-H1650, 72 hours. The method, then:
as §2

A further assay has as its system H1734. As to the kind of experiment: Inhibition of tumor cells, MTS method. The format is cell-based. The settings on record: Homo sapiens, NCI-H1734, 72 hours. As to the method: as §2
Assay [8] relates to A549. As to the kind of experiment: Inhibition of tumor cells, MTS method. In kind it is cell-based. As to conditions: Homo sapiens, 72 hours. As to the method: as §2

A word on the IC50: it is the concentration that gives 50% inhibition. A high value points to lower potency.

`CN(C)C/C=C/C(=O)Nc1cc2c(Nc3ccc(F)c(Cl)c3)ncnc2cc1OC(F)F` [Compound Ie]: the “inhibitory and therapeutic effects on CAL27 tumor model” value in assay [1] was “strong inhibitory effects and therapeutic effects”. Moreover, the IC50 in the assay with NCI-H2126 was found to be 1.69 µM; with SK-Br-3 [2], 0.028 µM; in the assay on ACHN, 0.107 µM; with C-33A, 0.057 µM; in the assay on A431 [3], 1.24 µM; in the assay on CW-2, 0.036 µM. Moreover, the IC50 with NCI-H358 was 0.195 µM; with A549 [4], 0.204 µM; with SK-Br-3 [6] it was 0.23 µM; in the assay on H292, 2.65 µM; in the assay with BT474 it was 0.034 µM; in the assay on HCC827, 0.002 µM. Moreover, the IC50 with H1975 came out at 0.8 µM; in the assay on A431 [7] it was 0.652 µM; with H1650, 3.24 µM; with H1734, 0.539 µM; in the assay with A549 [8], 3.72 µM. In assay [5] (0.5, 2.5 mg/kg/day orally for 21 days), the “inhibitory and therapeutic effects on HCC827 tumor model” value is “strong inhibitory effects and therapeutic effects”. For the same molecule, the “inhibitory effects on tumor cell growth compared with other drugs, HCC827 model” value in [5] (versus Erlotinib (12.5 mg/kg/day)) is reported as “stronger inhibitory effects”.

Values taken from patent US20150065709A1, “Aminoquinazoline Derivative And Use Thereof In Preparing Anti-Malignant Tumor Medicament” (METABOMICS, INC, priority 2012, published 2015).
